Where a name gives a salt, the structure may show the parent alone.
What was measured:
[1] = system: IL-23; assay: IL-23 production by DC, ELISA of culture supernatants; type: cell-based, mouse
Description: (§1) IL-4, IL-10, IL-12 and interferon-γ were determined using the ELISA (enzyme linked immunosorbent assay) set or with the use of individual components from BD BioSciences. IL-23 in the supernatant was determined using the ELISA set (eBioscience). For intracytoplasmic cytokine analyses, the T cells were restimulated with PMA/ionomycin or with APC and peptide in the presence of brefeldin A, then fixed and permeabilized and stained. For the surface staining, anti-CD4 or KJ1-26 antibodies were used; the cytokine antibodies (PE labeled) were all obtained from BD Pharmingen.
(§2) As antigen presenting cells (APC), T cell depleted spleen cells from syngenic mice were used. Dendritic cells (DC) which were obtained from bone marrow (BMDC) and cultured with GM-CSF were used for the relevant experiments on day 7 of culturing. For the experiment, in each case an equal number of APC were cultured either with the medium alone, with L-BSO (C8H18N2O3S, 0.5 mM), dimethyl sulfoxide DMSO(C2H6OS), dimethyl fumarate DMF (C6H8O4, dissolved in DMSO, 70 μM), or calcium monomethyl fumarate (MMF; CaC10H10O8, 200 μM). All substances except for MMF (Fumapharm) were purchased from Sigma-Aldrich. At the respective stated times (see below) the cells were either analyzed directly for their GSH content, used for T cell stimulation or stimulated for […] with Escherichia coli lipopolysaccharides 055.B5 (Sigma-Aldrich) or CpG-DNA 1668 (MWG Biotech) and IL-4 (Stratmann). In order to raise the GSH level again, 1 mM GSH-OEt (C12H21N3O6S; Sigma-Aldrich) or 1 mM NAC (Sigma-Aldrich) was added. The GSH reservoirs in mice were depleted by feeding with DMF or MMF, and in man by treatment with Fumaderm®.

[2] = system: IL-10; assay: IL-10 production by DC, ELISA of culture supernatants; type: cell-based, mouse
Description: as §1
as §2, with “All substances except for MMF (Fumapharm) were purchased from Sigma-Aldrich.” left out, “In order to raise the GSH level again, 1 mM GSH-OEt (C12H21N3O6S; Sigma-Aldrich) or 1 mM NAC (Sigma-Aldrich) was added. The GSH reservoirs in mice were depleted by feeding with DMF or MMF, and in man by treatment with Fumaderm®.” left out

[3] = system: ovalbumin-specific CD4+ T cells; assay: Priming of ovalbumin-specific CD4+ T cells with treated DC, IFN-γ and IL-4 by ELISA; type: cell-based, mouse; settings: restimulated with fresh APC and antigen
Description: as §1
(§3) The CD4+ T cells of DO11.10 mice were sorted using MACS magnet beads (Miltenyi Biotech). By culturing of DC on day seven with either medium and DMSO or DMF for 2 hours, DC^GSHhigh or DC^GSHlow could be generated. After four-hour stimulation with LPS or CpG-DNA/IL-4, the DC^GSHhigh or DC^GSHlow were used for the stimulation of DO11.10 T cells with 10 μg/ml ovalbumin peptide 323-339 for two days. The T cells were expanded with 50 U/ml IL-2 (Chiron Therapeutics). The cells were washed on day 10 and restimulated with fresh APC. The analysis was performed with the supernatants after 24 hrs. CD4^+ T cells were obtained from SJL mice immunized with PLP peptide using MACS magnet beads and stimulated with irradiated APC and PLP peptide 139-151 in the presence of L-BSO, DMF or only in medium as control. […]

[4] = system: PLP-specific T cells; assay: In vitro stimulation of PLP-specific T cells under GSH deprivation; type: cell-based, mouse
Description: as §3, with “hrs.” for “hrs. CD4^+ T cells were obtained from SJL mice immunized with PLP peptide using MACS magnet beads and stimulated with irradiated APC and PLP peptide 139-151 in the presence of L-BSO, DMF or only in medium as control.”
Spleen and lymph node CD4^+ T cells were stimulated with PLP (proteolipid protein) peptide 139-151 (10 μg/ml) and stimulated for four days with irradiated SJL-APC in the presence or absence of L-BSO (0.5 mM, Sigma), expanded for three to four days and then restimulated for cytokine production (proteolipid protein is the commonest myelin protein in the central nervous system and plays an important part as an autoantigen in the onset of multiple sclerosis). […] For the cytokine analysis of PLP-specific T cells, the draining lymph nodes of the SJL mice were removed 6 days after the immunization and CD4^+ T cells antigen-specifically analyzed (ELISPOT). […] After washing with H2O, the number of spots was determined in the ELISPOT reader (Biosys).

[5] = system: human DC; assay: GSH determination in human DC in vitro; type: cell-based
Description: Cellular GSH and GSSG were determined in micro-titer plate assays using colorimetric methods. The cellular GHS content is determined as a percentage of the GSH levels in freshly prepared controls or as pmol 10^−6 cells. GSSG was not detectable.
DC from human bone marrow (BMDC) (CD14^+) were isolated using MACS (Miltenyi Biotech) and incubated for seven days with IL-4 (500 U/ml, R & D Systems) and GM-CSF (Granulocyte-Monocyte Colony Stimulating Factor) (1000 U/ml (Immunonex)). GSX determination as under 1.3.

## COC(=O)/C=C/C(=O)OC [DMF, dimethyl fumarate]
[1]; LPS-induced
  lowering of LPS-induced IL-23 production in DC cultivated from bone marrow: up to 10,000 fold
[1]; after stimulation with LPS, compared to controls (DMSO)
  IL-23 production by DC: markedly less
[2]
  IL-10 production in DC: rise in IL-10 production
[3]
  IFN-γ production of TH cells induced by treated DC: little IFN-γ
  IL-4 production of TH cells induced by treated DC: much IL-4
[4]
  differentiation of PLP-specific T cells to Th1 and Th-17: inhibits the differentiation of Th1 and Th-17
  differentiation of PLP-specific T cells towards Th2: promotes the differentiation towards Th2
[5]
  GSH in human DC: depletes GSH
